In ChEMBL document CHEMBL1145469, “Lysostaphin in treatment of neonatal Staphylococcus aureus infection” (Antimicrob Agents Chemother, 2007):
Converted amounts (≈) assume the structure as drawn.

Assays:
Rattus norvegicus = assay: Drug level in rat serum at 25 mg/kg, im; format: ADME, organism-based; set-up: dose 25 mg/kg, route intramuscular; conditions: in vivo
Staphylococcus aureus = assay: Antibacterial activity against methicillin-sensitive Staphylococcus aureus; format: functional
Serum [1] = assay: Drug level in Staphylococcus aureus infected Wistar rat pups serum at 50 mg/kg, ip; format: ADME, organism-based; set-up: dose 50 mg/kg, route intraperitoneal; conditions: in vivo
Serum [2] = assay: Drug level in Staphylococcus aureus infected Wistar rat pups serum at 15 mg/kg, ip; format: ADME, organism-based; set-up: dose 15 mg/kg, route intraperitoneal; conditions: in vivo
[3] = Drug level in rat serum at 30 mg/kg, sc after 1 hr; format: ADME, organism-based; set-up: dose 30 mg/kg, route subcutaneous; conditions: read-out: Drug uptake
[4] = Drug level in rat serum at 100 mg/kg, iv after 0.5 hr; format: ADME, organism-based; set-up: dose 100 mg/kg, route intravenous; conditions: read-out: Drug uptake
[5] = Drug level in rat serum at 100 mg/kg, iv after 2 hrs; format: ADME, organism-based; set-up: dose 100 mg/kg, route intravenous; conditions: read-out: Drug uptake

Compound | Drug uptake (Rattus norvegicus) [µg/mL] | MBC (Staphylococcus aureus) [µg/mL] | MIC (Staphylococcus aureus) [µg/mL] | Drug uptake (Serum [1]) [µg/mL] | Drug uptake (Serum [2]) [µg/mL] | concentration at 1 h [3] [ng/mL] | concentration at 0.5 h [4] [ng/mL] | concentration at 2 h [5] [ng/mL]
CCOc1ccc2ccccc2c1C(=O)N[C@@H]1C(=O)N2[C@@H]1SC(C)(C)[C@@H]2C(=O)O [NAFCILLIN] | 20.6 | – | – | – | – | – | – | –
Cc1onc(-c2ccccc2)c1C(=O)N[C@@H]1C(=O)N2[C@@H]1SC(C)(C)[C@@H]2C(=O)O [OXACILLIN] | – | 0.25 (≈ 0.623 µM) | 0.125 (≈ 0.311 µM) | > 125 | – | – | – | –
CN[C@H](CC(C)C)C(=O)N[C@H]1C(=O)N[C@@H](CC(N)=O)C(=O)N[C@H]2C(=O)N[C@H]3C(=O)N[C@H](C(=O)N[C@H](C(=O)O)c4cc(O)cc(O)c4-c4cc3ccc4O)[C@H](O)c3ccc(c(Cl)c3)Oc3cc2cc(c3O[C@@H]2O[C@H](CO)[C@@H](O)[C@H](O)[C@H]2O[C@H]2C[C@](C)(N)[C@H](O)[C@H](C)O2)Oc2ccc(cc2Cl)[C@H]1O [VANCOMYCIN] | – | 0.25 (≈ 0.173 µM) | – | – | > 125 | 36000 | 180000 | 45000
